# Measured values taken from the supplement of paper PMC11208160.
# Test: recombinant UMI read abundance after kanamycin selection (control-corrected) (log10(CPM+1)); higher = more efficient recombination; extreme values may be limits of the assay; sequences stand for … in AGTGCAGAGAAAATCGGCCAGTTTTCTCTGCCTGCAGTCCGCATGCCGTGGGACCCCTTGGGTTCTAACCTGTTGCCTAGATTTATGCAGCGGACTGCCTTTCTCCCAAAGTGATAAACCGG…AGGTTGGTTTCACT; site = the 11-nt donor
# In short: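 In a pooled Escherichia coli screen for the IS621 bridge recombinase, donor and donor-binding-loop pairs were each placed with a 12-nt UMI on a plasmid bearing a promoterless kanamycin gene. This library was co-electroporated with a target plasmid encoding a fixed target and T7-inducible recombinase, and cells were plated either on IPTG (0.07 mM) plus kanamycin or without selection, in two replicates each. Recombinant UMIs were PCR-amplified across the donor–target junction and sequenced, and counts were converted to CPM, averaged over replicates, scaled by control-derived factors and reported as log10(CPM+1).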
row,Sequence,recombinant UMI read abundance (log10)
1,TGGCCGGCATGGACCGGTTTTCCCGGTAATCCGTATTTGGC (site TGGGCGGCTGC),0
2,TGGCCGGCATGGACCGGTTTTCCCGGTAATCCGTATTTGGC (site TGGTCGGCTGC),0.00844
3,TGGCCGGCATGGACCGGTTTTCCCGGTAATCCGTATTTGGC (site TGTCCGGCTGC),0
4,TGGCCGGCATGGACCGGTTTTCCCGGTAATCCGTATTTGGC (site TTGCCGGCTGC),0.00854
5,TGGCCGTCATGGACCGGTTTTCCCGGTAATCCGTATTTGAG (site TGGCCGTCTCT),0.297
6,TGGCCTGCATGGACCGGTTTTCCCGGTAATCCGTATTTGGC (site TGGCCAGCTGC),0
7,TGGCCTGCATGGACCGGTTTTCCCGGTAATCCGTATTTGGC (site TGGCCCGCTGC),0
8,TGGCCTGCATGGACCGGTTTTCCCGGTAATCCGTATTTGGC (site TGGCCGGCTGC),0
9,TGGCCTGCATGGACCGGTTTTCCCGGTAATCCGTATTTGGC (site TGGCCTGCTGC),0
10,TGGCTAGCATGGACCGGTTTTCCCGGTAATCCGTATTTGAA (site TAGCTAGCTTT),0.00919
11,TGGCTAGCATGGACCGGTTTTCCCGGTAATCCGTATTTGAA (site TCGCTAGCTTT),0.0168
12,TGGCTAGCATGGACCGGTTTTCCCGGTAATCCGTATTTGAA (site TGGCTAGCTTT),1.06
13,TGGCTAGCATGGACCGGTTTTCCCGGTAATCCGTATTTGAA (site TTGCTAGCTTT),0.00374
14,TGGCTCTCATGGACCGGTTTTCCCGGTAATCCGTATTTGCA (site TGGCTCTCTTG),1.86
15,TGGGAACCATGGACCGGTTTTCCCGGTAATCCGTATTTGAT (site AGGGAACCTAT),0
16,TGGGAACCATGGACCGGTTTTCCCGGTAATCCGTATTTGAT (site CGGGAACCTAT),0.00502
17,TGGGAACCATGGACCGGTTTTCCCGGTAATCCGTATTTGAT (site GGGGAACCTAT),0
18,TGGGAACCATGGACCGGTTTTCCCGGTAATCCGTATTTGAT (site TGGGAACCTAT),0.00982
19,TGGTCCACATGGACCGGTTTTCCCGGTAATCCGTATTTGTC (site TGGTCCACTGA),0.323
20,TGGTCCCCATGGACCGGTTTTCCCGGTAATCCGTATTTGTA (site TGATCCCCTTA),0
21,TGGTCCCCATGGACCGGTTTTCCCGGTAATCCGTATTTGTA (site TGCTCCCCTTA),0.176
22,TGGTCCCCATGGACCGGTTTTCCCGGTAATCCGTATTTGTA (site TGGTCCCCTTA),0.0183
23,TGGTCCCCATGGACCGGTTTTCCCGGTAATCCGTATTTGTA (site TGTTCCCCTTA),0.00825

row,Sequence,recombinant UMI read abundance (log10)
1,TGGTGCACATGGACCGGTTTTCCCGGTAATCCGTATTTGCC (site TGGTGCACTGG),1.75
2,TGGTTCCCATGGACCGGTTTTCCCGGTAATCCGTATTTGTG (site AGGTTCCCTCA),0.0205
3,TGGTTCCCATGGACCGGTTTTCCCGGTAATCCGTATTTGTG (site CGGTTCCCTCA),0.0117
4,TGGTTCCCATGGACCGGTTTTCCCGGTAATCCGTATTTGTG (site GGGTTCCCTCA),0.0263
5,TGGTTCCCATGGACCGGTTTTCCCGGTAATCCGTATTTGTG (site TGGTTCCCTCA),0.0117
6,TGGTTGACATGGACCGGTTTTCCCGGTAATCCGTATTTGTA (site TGGTTGACTTA),1.04
7,TGGTTTCCATGGACCGGTTTTCCCGGTAATCCGTATTTGGG (site TGGTTTCCTCC),0.327
8,TGTACACCATGGACCGGTTTTCCCGGTAATCCGTATTTGAC (site AGTACACCTGT),0
9,TGTACACCATGGACCGGTTTTCCCGGTAATCCGTATTTGAC (site CGTACACCTGT),0
10,TGTACACCATGGACCGGTTTTCCCGGTAATCCGTATTTGAC (site GGTACACCTGT),0
11,TGTACACCATGGACCGGTTTTCCCGGTAATCCGTATTTGAC (site TATACACCTGT),0
12,TGTACACCATGGACCGGTTTTCCCGGTAATCCGTATTTGAC (site TCTACACCTGT),0
13,TGTACACCATGGACCGGTTTTCCCGGTAATCCGTATTTGAC (site TGAACACCTGT),0
14,TGTACACCATGGACCGGTTTTCCCGGTAATCCGTATTTGAC (site TGCACACCTGT),0
15,TGTACACCATGGACCGGTTTTCCCGGTAATCCGTATTTGAC (site TGGACACCTGT),0.00576
16,TGTACACCATGGACCGGTTTTCCCGGTAATCCGTATTTGAC (site TGTAAACCTGT),0
17,TGTACACCATGGACCGGTTTTCCCGGTAATCCGTATTTGAC (site TGTACAACTGT),0
18,TGTACACCATGGACCGGTTTTCCCGGTAATCCGTATTTGAC (site TGTACACCTAT),0.0116
19,TGTACACCATGGACCGGTTTTCCCGGTAATCCGTATTTGAC (site TGTACACCTCT),0.0222
20,TGTACACCATGGACCGGTTTTCCCGGTAATCCGTATTTGAC (site TGTACACCTGA),0
21,TGTACACCATGGACCGGTTTTCCCGGTAATCCGTATTTGAC (site TGTACACCTGC),0
22,TGTACACCATGGACCGGTTTTCCCGGTAATCCGTATTTGAC (site TGTACACCTGG),0
23,TGTACACCATGGACCGGTTTTCCCGGTAATCCGTATTTGAC (site TGTACACCTGT),0

row,Sequence,recombinant UMI read abundance (log10)
1,TGTACACCATGGACCGGTTTTCCCGGTAATCCGTATTTGAC (site TGTACACCTTT),0.0141
2,TGTACACCATGGACCGGTTTTCCCGGTAATCCGTATTTGAC (site TGTACAGCTGT),0
3,TGTACACCATGGACCGGTTTTCCCGGTAATCCGTATTTGAC (site TGTACATCTGT),0
4,TGTACACCATGGACCGGTTTTCCCGGTAATCCGTATTTGAC (site TGTACCCCTGT),0
5,TGTACACCATGGACCGGTTTTCCCGGTAATCCGTATTTGAC (site TGTACGCCTGT),0
6,TGTACACCATGGACCGGTTTTCCCGGTAATCCGTATTTGAC (site TGTACTCCTGT),0
7,TGTACACCATGGACCGGTTTTCCCGGTAATCCGTATTTGAC (site TGTAGACCTGT),0
8,TGTACACCATGGACCGGTTTTCCCGGTAATCCGTATTTGAC (site TGTATACCTGT),0
9,TGTACACCATGGACCGGTTTTCCCGGTAATCCGTATTTGAC (site TGTCCACCTGT),0
10,TGTACACCATGGACCGGTTTTCCCGGTAATCCGTATTTGAC (site TGTGCACCTGT),0
11,TGTACACCATGGACCGGTTTTCCCGGTAATCCGTATTTGAC (site TGTTCACCTGT),0
12,TGTACACCATGGACCGGTTTTCCCGGTAATCCGTATTTGAC (site TTTACACCTGT),0
13,TGTACACCATGGACCGGTTTTCCCGGTAATCCGTATTTGAG (site TGTACACCTAT),0.0116
14,TGTACACCATGGACCGGTTTTCCCGGTAATCCGTATTTGAG (site TGTACACCTCT),0.00855
15,TGTACACCATGGACCGGTTTTCCCGGTAATCCGTATTTGAG (site TGTACACCTGT),0
16,TGTACACCATGGACCGGTTTTCCCGGTAATCCGTATTTGAG (site TGTACACCTTT),0.0116
17,TGTACACCATGGACCGGTTTTCCCGGTAATCCGTATTTGGC (site TGTACACCTGA),0
18,TGTACACCATGGACCGGTTTTCCCGGTAATCCGTATTTGGC (site TGTACACCTGC),0.00484
19,TGTACACCATGGACCGGTTTTCCCGGTAATCCGTATTTGGC (site TGTACACCTGG),0
20,TGTACACCATGGACCGGTTTTCCCGGTAATCCGTATTTGGC (site TGTACACCTGT),0
21,TGTACGCCATGGACCGGTTTTCCCGGTAATCCGTATTTGAC (site TGTACACCTGT),0
22,TGTACGCCATGGACCGGTTTTCCCGGTAATCCGTATTTGAC (site TGTACCCCTGT),0
